Reference: ChEMBL document CHEMBL1201862, “PubChem BioAssay data set” (2004)
Active and inactive are the calls of the source.

How the values were obtained:
[1] = target: T1, Corticotropin-releasing factor receptor 2/Corticotropin-releasing factor-binding protein (Homo sapiens, UniProt P24387+Q13324); assay: activators of CRF receptor 2 with binding protein – uHTS hits, confirmation (AID 602473); type: functional; settings: read-out: EC50_Mean
T1 sequence (Q13324 whole entry): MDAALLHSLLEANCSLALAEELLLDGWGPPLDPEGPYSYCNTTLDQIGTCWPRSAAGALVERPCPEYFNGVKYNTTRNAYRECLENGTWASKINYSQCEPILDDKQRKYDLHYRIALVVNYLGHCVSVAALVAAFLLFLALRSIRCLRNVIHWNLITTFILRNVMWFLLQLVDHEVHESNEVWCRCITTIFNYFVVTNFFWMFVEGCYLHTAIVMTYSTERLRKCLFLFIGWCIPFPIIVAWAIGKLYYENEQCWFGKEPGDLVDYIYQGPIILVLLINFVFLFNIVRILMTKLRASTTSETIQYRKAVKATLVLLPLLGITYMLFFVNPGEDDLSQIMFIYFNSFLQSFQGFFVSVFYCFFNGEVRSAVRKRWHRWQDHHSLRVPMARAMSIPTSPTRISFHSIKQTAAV
T1 sequence (P24387 whole entry): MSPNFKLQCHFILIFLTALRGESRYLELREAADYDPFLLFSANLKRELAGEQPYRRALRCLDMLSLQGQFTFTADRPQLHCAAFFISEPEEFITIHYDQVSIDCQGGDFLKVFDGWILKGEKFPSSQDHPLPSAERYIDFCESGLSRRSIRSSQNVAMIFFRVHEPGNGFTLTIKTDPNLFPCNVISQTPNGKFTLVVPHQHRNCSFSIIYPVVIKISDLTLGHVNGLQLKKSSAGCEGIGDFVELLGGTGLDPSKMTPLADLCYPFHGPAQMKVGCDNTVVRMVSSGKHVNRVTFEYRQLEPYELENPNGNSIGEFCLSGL

[2] = target: T1, Corticotropin-releasing factor receptor 2/Corticotropin-releasing factor-binding protein; assay: Dose Response confirmation of uHTS hits for small molecule antagonists of the CRF-binding protein and CRF-R2 receptor complex.; type: functional; settings: read-out: IC50_Mean
H9c2 = assay: cells; type: functional, cell-based; settings: Rattus norvegicus, H9c2, Myocardium
[3] = target: T2, Heat shock factor protein 1 (Mus musculus, UniProt P38532); assay: decrease of HSF1-responsive luciferase luminescence – cell-based, NIH3T3, dose retest, confirmation (AID 2382); type: functional;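 further: NIH3T3 fibroblasts with HSF1-driven luciferase reporter stressed by proteasome inhibitor MG132; luminescence from HSF1-driven luciferase expression after 8 hours of MG132 stress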
T2 sequence (P38532 whole entry): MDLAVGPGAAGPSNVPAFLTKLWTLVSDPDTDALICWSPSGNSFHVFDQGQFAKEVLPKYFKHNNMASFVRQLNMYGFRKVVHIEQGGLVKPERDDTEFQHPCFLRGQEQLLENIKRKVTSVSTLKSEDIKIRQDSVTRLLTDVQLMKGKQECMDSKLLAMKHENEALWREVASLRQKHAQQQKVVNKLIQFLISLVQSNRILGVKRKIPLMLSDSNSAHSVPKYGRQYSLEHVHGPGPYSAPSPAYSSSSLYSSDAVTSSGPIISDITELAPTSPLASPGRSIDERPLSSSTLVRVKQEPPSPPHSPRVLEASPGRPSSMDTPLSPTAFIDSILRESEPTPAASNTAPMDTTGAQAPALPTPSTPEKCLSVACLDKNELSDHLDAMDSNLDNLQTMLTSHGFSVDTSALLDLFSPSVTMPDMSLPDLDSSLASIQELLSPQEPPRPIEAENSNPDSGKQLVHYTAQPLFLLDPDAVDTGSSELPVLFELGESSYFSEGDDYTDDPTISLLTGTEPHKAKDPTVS

Paired box protein Pax-8 = Paired box protein Pax-8 (Homo sapiens, UniProt Q06710); assay: PAX8 transcriptional activity inhibition in RMG-I – RMG-I cells, luciferase, cherry-pick, dose response (AID 687027); type: functional, cell-based;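 further: luciferase reporter driven by Pax8 target thyroperoxidase promoter measured by SteadyGlo luminescence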
[4] = target: T3, Replicative DNA helicase DnaB (Mycobacterium tuberculosis, UniProt P9WMR3); assay: DnaB intein splicing inhibitors, dose response, biochemical, cell-free fluorescence (AID 449749); type: functional
T3 sequence (P9WMR3 whole entry): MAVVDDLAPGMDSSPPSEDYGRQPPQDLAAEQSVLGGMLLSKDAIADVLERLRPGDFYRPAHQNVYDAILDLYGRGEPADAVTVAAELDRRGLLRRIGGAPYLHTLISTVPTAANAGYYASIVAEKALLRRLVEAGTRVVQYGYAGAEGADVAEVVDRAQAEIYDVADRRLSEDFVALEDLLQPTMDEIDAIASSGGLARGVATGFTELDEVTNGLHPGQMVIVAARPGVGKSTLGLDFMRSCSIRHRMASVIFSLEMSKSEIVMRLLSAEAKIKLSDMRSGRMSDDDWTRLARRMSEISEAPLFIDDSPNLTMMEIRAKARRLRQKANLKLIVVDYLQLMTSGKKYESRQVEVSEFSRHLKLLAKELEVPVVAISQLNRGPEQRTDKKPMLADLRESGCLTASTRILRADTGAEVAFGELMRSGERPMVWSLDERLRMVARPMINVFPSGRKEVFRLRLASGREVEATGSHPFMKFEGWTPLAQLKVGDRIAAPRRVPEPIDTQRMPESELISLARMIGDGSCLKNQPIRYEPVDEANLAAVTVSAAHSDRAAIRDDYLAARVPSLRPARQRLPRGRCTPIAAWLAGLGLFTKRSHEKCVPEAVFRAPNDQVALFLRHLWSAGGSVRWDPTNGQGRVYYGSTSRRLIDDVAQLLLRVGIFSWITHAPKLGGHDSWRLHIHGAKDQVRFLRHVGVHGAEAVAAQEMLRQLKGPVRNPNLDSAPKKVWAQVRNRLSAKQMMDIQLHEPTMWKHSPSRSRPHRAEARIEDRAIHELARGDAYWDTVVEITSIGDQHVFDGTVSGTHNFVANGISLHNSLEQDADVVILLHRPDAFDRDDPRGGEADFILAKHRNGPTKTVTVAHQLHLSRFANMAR

Protein RecA = target: T4, Protein RecA (Mycobacterium tuberculosis, UniProt P9WHJ3); assay: Fluorescence Cell-Free Homogeneous Dose Retest to Identify Inhibitors of RecA-Intein Splicing Activity. [Related pubchem assays (depositor defined):AID2097, AID2223, AID489010, AID492950]; type: functional
T4 sequence (P9WHJ3 whole entry): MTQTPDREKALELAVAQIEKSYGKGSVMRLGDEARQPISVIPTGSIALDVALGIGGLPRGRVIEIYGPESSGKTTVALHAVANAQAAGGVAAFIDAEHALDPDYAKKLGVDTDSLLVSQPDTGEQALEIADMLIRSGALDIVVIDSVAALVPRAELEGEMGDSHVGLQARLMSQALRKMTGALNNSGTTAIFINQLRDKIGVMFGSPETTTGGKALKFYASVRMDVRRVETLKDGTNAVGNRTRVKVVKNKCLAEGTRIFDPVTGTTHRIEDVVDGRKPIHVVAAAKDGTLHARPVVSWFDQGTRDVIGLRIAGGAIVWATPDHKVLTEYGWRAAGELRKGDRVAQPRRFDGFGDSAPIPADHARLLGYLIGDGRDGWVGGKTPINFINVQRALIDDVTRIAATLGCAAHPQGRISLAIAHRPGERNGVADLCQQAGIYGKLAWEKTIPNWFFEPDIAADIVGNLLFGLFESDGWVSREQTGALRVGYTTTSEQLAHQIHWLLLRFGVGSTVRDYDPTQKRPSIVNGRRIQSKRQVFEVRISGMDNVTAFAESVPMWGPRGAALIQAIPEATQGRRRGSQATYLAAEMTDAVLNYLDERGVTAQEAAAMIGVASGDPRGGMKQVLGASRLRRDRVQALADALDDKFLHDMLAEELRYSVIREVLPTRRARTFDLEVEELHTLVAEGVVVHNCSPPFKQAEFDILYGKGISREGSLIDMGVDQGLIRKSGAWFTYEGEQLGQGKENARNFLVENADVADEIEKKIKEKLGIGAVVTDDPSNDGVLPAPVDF

Chain of Paired box protein Pax-8 (Q06710 whole entry): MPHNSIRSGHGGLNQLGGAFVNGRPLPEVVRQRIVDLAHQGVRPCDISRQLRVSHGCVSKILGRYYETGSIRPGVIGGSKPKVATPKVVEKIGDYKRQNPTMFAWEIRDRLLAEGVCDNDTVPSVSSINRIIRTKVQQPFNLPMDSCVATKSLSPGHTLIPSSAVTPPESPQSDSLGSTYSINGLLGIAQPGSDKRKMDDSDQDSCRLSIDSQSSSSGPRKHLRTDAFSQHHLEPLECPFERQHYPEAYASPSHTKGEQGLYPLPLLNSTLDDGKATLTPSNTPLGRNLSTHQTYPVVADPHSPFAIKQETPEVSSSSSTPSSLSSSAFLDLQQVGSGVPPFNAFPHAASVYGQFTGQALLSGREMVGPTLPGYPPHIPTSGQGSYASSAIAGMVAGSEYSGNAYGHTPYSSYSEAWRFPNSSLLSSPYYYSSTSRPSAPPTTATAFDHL

## Cc1ccc(CN2CC(C(=O)NCCCSc3ccccc3)CC2=O)cc1 (configuration not stated)
[1]
  EC50: > 53 µM (inactive)
[2]
  IC50: > 47.1 µM (inactive)

## COc1ccc(-c2cc(NC=O)c3ncc(-c4ccc(C(C)=O)cc4)n3c2)cn1
H9c2
  IC50: > 79 µM (inactive)

## O=C(NCC1CCCN(C2Cc3ccccc3C2)C1)c1cccs1 (configuration not stated)
[3]
  EC50: > 195 µM (not active)

## CCN(CCO)c1ncnc2c1sc1nc(C(C)C)c3c(c12)CC(C)(C)OC3
H9c2
  IC50: > 79 µM (inactive)

## COc1ccc(NC(=O)c2cc(-c3ccc(OC)c(OC)c3)nc3ccccc23)c(OC)c1
H9c2
  IC50: > 79 µM (inactive)

## CCOC(=O)c1ccc(NC(=S)Nc2ccccc2N)cc1
[3]
  EC50: > 195 µM (not active)

## O=C(Nc1cccc(F)c1)c1cc(-c2ccco2)nc2ccccc12
[3]
  EC50: > 195 µM (not active)

## CCN(CC(=O)Nc1cc(Cl)ccc1C)C(=O)CCc1nc(O)c2ccccc2n1
H9c2
  IC50: > 79 µM (inactive)

## CCOC(=O)C1=C(CN2CCN(C(=O)c3ccco3)CC2)NC(=O)NC1c1ccc(OC)cc1 (configuration not stated)
[3]
  EC50: > 195 µM (not active)

## O=C(Nc1cccn(Cc2c(Cl)cccc2Cl)c1=O)c1c(Cl)cccc1Cl
[1]
  EC50: > 53 µM (inactive)
[2]
  IC50: 9.97 µM (active)

## CN(C)C(=O)/C=C\c1cn(-c2ccccc2)nc1-c1ccc2c(c1)OCCO2
H9c2
  IC50: > 79 µM (inactive)

## NC(=O)c1nsc(C(=O)N(c2ccccc2)C(C(=O)NC2CCCC2)c2ccc3ncccc3c2)c1N (configuration not stated)
H9c2
  IC50: > 79 µM (inactive)

## CCN(CC)C(=O)CSc1ncnc2c1cnn2-c1ccccc1
[1]
  EC50: > 53 µM (inactive)
[2]
  IC50: > 47.1 µM (inactive)

## Cc1ccc(Nc2nc(N)nc(O)c2N=O)cc1
H9c2
  IC50: 12.1 µM (active)

## CC(OC(=O)Cn1[nH]c(=O)c2ccccc2c1=O)C(=O)Nc1ccccc1[N+](=O)[O-] (configuration not stated)
H9c2
  IC50: > 79 µM (inactive)

## COc1cccc(C(c2nnnn2Cc2ccccc2)N2CCC(n3c(O)nc4ccccc43)CC2)c1OC (configuration not stated)
Paired box protein Pax-8
  AC50: 5.5 µM (active)

## COc1cc(-c2cnc3c(NC=O)cc(-c4ccsc4)cn23)cc(OC)c1OC
H9c2
  IC50: > 79 µM (inactive)

## CCn1cc(C(=O)Nc2cccc(NC(C)=O)c2)c2cc(OC)c(OC)cc2c1=O
H9c2
  IC50: 20.3 µM (active)

## COC(=O)c1c(NC(=O)/C=C/C(=O)O)sc(C)c1-c1ccc(C)cc1
[4]
  AC50: 33.7 µM (active)
Protein RecA
  EC50: 11.1 µM (active)

## Cc1ccc(N2C(=O)CC(=O)NC2=O)c(C)c1
[1]
  EC50: > 53 µM (inactive)
[2]
  IC50: > 47.1 µM (inactive)

## CCN=C(S)Nc1cc(OC)c(NC(=O)c2ccco2)cc1OC
[1]
  EC50: > 53 µM (inactive)
[2]
  IC50: > 47.1 µM (inactive)

## COc1cccc(/C=N/NC(=O)c2oc3nc(-c4ccccc4)cc(-c4ccco4)c3c2N)c1
H9c2
  IC50: > 79 µM (inactive)

## CCc1ccccc1-n1c(SCC(=O)Nc2ccc3c(c2)OCCO3)nc2nncc-2c1O
[3]
  EC50: 3.04 µM (active)

## Cc1noc(C)c1COC(=O)COc1ccc2c(C)cc(=O)oc2c1
H9c2
  IC50: 13.5 µM (active)

## COc1cc2c(c(OC)c1OC)-c1ccc(SC)c(=O)cc1C(NC(=O)C(F)(F)F)CC2 (configuration not stated)
Paired box protein Pax-8
  AC50: < 0.26 µM (active)

## O=C(Nc1cccc(F)c1)N1CCC(c2ccccc2)CC1
[4]
  AC50: 53.5 µM (active)
Protein RecA
  EC50: > 380 µM (inactive)

## COc1cc2c(cc1OC)C(C(=O)NC1CC1)C1c3ccccc3CCN1C2=O (configuration not stated)
[3]
  EC50: > 195 µM (not active)

## FC(F)(F)c1ccc2c(c1)N(CCCN1CCN(CCCl)CC1)c1ccccc1S2
[4]
  AC50: 9.54 µM (active)
Protein RecA
  EC50: 3.6 µM (active)

## Cn1c2c(c(=O)n(C)c1=O)C(c1cccc([N+](=O)[O-])c1)Nc1ccccc1O2 (configuration not stated)
H9c2
  IC50: > 79 µM (inactive)

## Cn1c(=O)n(C)c2cc(S(=O)(=O)Nc3cc(Cl)ccc3O)ccc21
[1]
  EC50: > 53 µM (inactive)
[2]
  IC50: > 47.1 µM (inactive)

## CCOC(=O)C(Cc1ccccc1)NC(=O)CCc1nnc2ccc(N3CCCC3)nn12 (configuration not stated)
[1]
  EC50: > 53 µM (inactive)
[2]
  IC50: > 47.1 µM (inactive)

## CCOC(=O)C1=C(COC(=O)/C=C/c2ccc(F)cc2)NC(=O)NC1C (configuration not stated)
H9c2
  IC50: > 79 µM (inactive)

## CN(Cc1ccccn1)C(=O)C1CCC(=O)N(Cc2cccc(C(F)(F)F)c2)C1 (configuration not stated)
[1]
  EC50: > 53 µM (inactive)
[2]
  IC50: > 47.1 µM (inactive)

## CCOC(=O)c1c(NC(=O)CCl)sc(C(=O)N(CC)CC)c1C
[4]
  AC50: 2.19 µM (active)
Protein RecA
  EC50: 43.6 µM (active)

## Clc1ccc(-c2nnc(Sc3nc4ccccc4o3)c3ccccc23)cc1
[4]
  AC50: 1.58 µM (active)
Protein RecA
  EC50: 0.405 µM (active)

## O=C1NC(=O)c2c(Br)c(Br)c(Br)c(Br)c21
H9c2
  IC50: > 79 µM (inactive)

## COC(=O)c1ccc(C(c2c(C)n[nH]c2O)c2c(C)n[nH]c2O)cc1
[4]
  AC50: 3.35 µM (active)
Protein RecA
  EC50: 1.94 µM (active)

## c1ccc(-c2ccc(C3CCCN3)cc2)cc1 (configuration not stated)
[4]
  AC50: > 380 µM (inactive)
Protein RecA
  EC50: > 380 µM (inactive)

## COc1ccc(OCc2cc(C(=O)NC3CCOC(C)(C)C3)no2)c2ccccc12 (configuration not stated)
[4]
  AC50: 4.88 µM (active)
Protein RecA
  EC50: 4.57 µM (active)

## COC(=O)c1ccc(CNC(=O)COC(=O)CC23CC4CC(CC(Br)(C4)C2)C3)cc1
[1]
  EC50: > 53 µM (inactive)
[2]
  IC50: > 47.1 µM (inactive)
